Columns and labels:
[1] = biological target: T1, Nicotinamide phosphoribosyltransferase (Homo sapiens, UniProt P43490); assay: Inhibition of NAM binding to human full length C-terminal flag/His-tagged NAMPT (1 to 491 residues) at 400 uM by STD-NMR spectroscopic analysis relative to control
Target sequence in this assay (P43490 whole entry, looked up, the tested form may be a part): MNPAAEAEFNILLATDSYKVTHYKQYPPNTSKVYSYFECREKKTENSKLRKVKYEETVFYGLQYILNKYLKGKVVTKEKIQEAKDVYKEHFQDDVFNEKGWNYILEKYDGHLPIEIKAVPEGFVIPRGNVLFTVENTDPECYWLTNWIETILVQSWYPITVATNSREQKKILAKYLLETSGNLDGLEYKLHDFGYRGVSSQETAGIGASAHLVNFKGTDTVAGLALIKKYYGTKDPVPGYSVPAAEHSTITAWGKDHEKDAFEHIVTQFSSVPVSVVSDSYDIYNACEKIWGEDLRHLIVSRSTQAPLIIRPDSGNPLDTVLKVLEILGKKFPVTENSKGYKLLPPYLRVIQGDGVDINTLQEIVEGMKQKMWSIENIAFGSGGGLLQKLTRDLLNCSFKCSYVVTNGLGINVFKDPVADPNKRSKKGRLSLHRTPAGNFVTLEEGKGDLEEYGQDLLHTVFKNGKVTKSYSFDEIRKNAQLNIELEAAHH

[2] = biological target: T1, Nicotinamide phosphoribosyltransferase; assay: Inhibition of human full length C-terminal flag/His-tagged NAMPT (1 to 491 residues) expressed in HEK293-6E cells by TR-FRET assay
Target sequence in this assay (P43490 whole entry, the tested form may be a part): as the sequence (P43490 whole entry, looked up, the tested form may be a part) above

| SMILES | inhibition [1] [%] | IC50 [2] [µM] |
| --- | --- | --- |
| Cc1ccc(Cn2nnc3cc(C(N)=O)ccc32)cc1 | 80 | 8 |
| O=C1C2CCC2C(=O)N1CCc1ccccn1 (stereo unspecified) | 80 | > 1000 |
| O=C1OCCC/C1=C\Nc1ccccc1 |  | 10 |
| CC(C)CCNC(=O)c1ccc(NC(=O)Nc2ccc3nc[nH]c3c2)cc1 |  | 0.08 |
| O=C(NCc1ccncc1)Nc1ccc(F)c(F)c1 | 80 | 850 |
| CCCc1cc(=O)[nH]c(Nc2ccccc2F)n1 | 80 | 360 |
| O=C(Cc1ccccc1)Nc1ccc2nc[nH]c2c1 |  | 90 |

Source: ChEMBL document CHEMBL4184099, “Fragment-based discovery of a potent NAMPT inhibitor” (Bioorg Med Chem Lett, 2018)
